Like-named read-outs stand apart in the source and are kept apart here.

The target of series [1] is Nav1.8 ion channel stably expressed on HEK293 cells (Homo sapiens (Human), UniProt Q9Y5Y9). In words: Inhibitory activity against Nav1.8, manual patch clamp. It counts as cell-based. The note with it: resting protocol (-80 mV to 10 mV), 1 μM TTX, read-out: IC50 for the inhibition of Nav1.8 channel activity.
A short description of series [2]: Pharmacokinetic evaluation in C57 mice (i.g./i.v.). It counts as in vivo. The note with it: for Vd / AUC(0-t) / half-life / Cmax / bioavailability / CL/F: both sexes, mouse, plasma; for Vd: read-out: Apparent distribution volume Vss; for AUC(0-t): read-out: Area under curve AUC0-t; for half-life: read-out: Half-life T½ (converted); for Cmax: read-out: Plasma concentration Cmax; for bioavailability: oral, i.g. 2.0 mg/kg vs i.v. 1.0 mg/kg, read-out: Bioavailability F; for CL/F: read-out: Clearance rate CL/F; for Clearance rate CL/F: i.v. As to the method:
C57 mice were used as test animals. After intragastric (i.g.)/intravenous (i.v.) administration of the compounds of the present disclosure to C57 mice, the plasma concentrations of the compounds at different time points were determined by the LC/MS/MS method. The pharmacokinetic behaviors of the compounds of the present disclosure in C57 mice were studied, and their pharmacokinetic profiles were evaluated.
Compound 16 and compound 32.
Thirty-six C57 mice, with an equal number of males and females, provided by Vital River Laboratory Animal Technology Co., Ltd., with the production licenses SCXK (Zhejiang) 2019-0001 and SCXK (Beijing) 2019-0006. The mice were evenly divided into 4 groups of 9, with 3 mice per time point per group, and dosed by intragastric and intravenous administration.
Certain amounts of the test compounds were weighed out, and 5% DMSO+5% tween 80+90% normal saline was added to prepare 0.1 mg/mL colorless clear solutions (for the intragastric administration groups) and 0.1 mg/mL colorless clear solutions (for the intravenous administration groups).
The intragastric administration groups: The administration dose was 2.0 mg/kg, and the administration volume was 20 mL/kg.
The intravenous administration groups: The administration dose was 1.0 mg/kg, and the administration volume was 10 mL/kg.
The intragastric administration groups: 0.1-mL blood samples were collected from the orbit before administration and 0.25, 0.5, 1.0, 2.0, 4.0, 6.0, 8.0, 11.0, and 24.0 h after administration, placed into EDTA-K2 anticoagulation test tubes, and centrifuged at 10,000 rpm for 1 min (4° C.), and the plasma was separated within 1 h and stored at −80° C. before analysis. The procedures from the blood collection to the centrifugation were performed under ice-bath conditions.
The intravenous administration groups: Blood samples were collected before administration and 5 min and 0.25, 0.5, 1.0, 2.0, 4.0, 8.0, 11.0, and 24 h after administration and were treated in the same way as those collected from the intragastric administration groups.
Determination of the plasma concentrations of the test compounds in C57 mice after the compounds were administered at different concentrations: Compound 16: A 20-μL sample of the C57 mouse plasma collected at each time point after administration was taken, and 200 μL of acetonitrile containing 100 ng/mL camptothecin (internal standard) was added to each sample to precipitate protein. The mixture was vortexed for 5 min and centrifuged at 3700 rpm for 10 min. 50 μL of the supernatant was taken, and 100 μL of water was added. The mixture was vortexed for 5 min, and 1 μL of the mixture was taken for LC/MS/MS analysis. Compound 32: A 20-μL sample of the C57 mouse plasma collected at each time point after administration was taken, and 200 μL of acetonitrile containing verapamil (internal standard, 20 ng/mL) was added to each sample to precipitate protein. The mixture was vortexed for 5 min and centrifuged at 3700 rpm for 10 min. 90 μL of the supernatant was taken, and 90 μL of water was added. The mixture was vortexed for 5 min, and 0.1 μL of the mixture was taken for LC/MS/MS analysis.

Broadly, the IC50 is the concentration needed to halve the response being measured. As usually defined, the half-life is how long it takes for the measured level to halve. As a reminder, the bioavailability is the share of a dose that reaches the circulation, judged against a reference dose that is usually intravenous. As for `COc1c([C@H]2[C@H](C(=O)Nc3ccnc(/C(N)=N/O)c3)O[C@@](C)(C(F)(F)F)[C@H]2C)ccc(F)c1F` [Example 32], the IC50 in series [1] amounted to 0.93 nM. Further, in series [2] (iv, 1.0 mg/kg), the Vd was found to be 3.93 L/kg, the AUC(0-t) is 0.947 µg·h/mL, the half-life is 3.3 h and the Cmax was determined as 0.616 µg/mL. Further, the bioavailability in series [2] was 82.6%. In addition, in series [2] (po, i.g., 2.0 mg/kg), the AUC(0-t) stood at 1.56 µg·h/mL, the CL/F stood at 1.27 L/h/kg, the half-life is 3.2 h and the Cmax came to 0.26 µg/mL. Also, the “Clearance rate CL/F” value in series [2] (1.0 mg/kg) stood at 0.966 L/h/kg.
With `CO/N=C(\N)c1cc(NC(=O)[C@@H]2O[C@@](C)(C(F)(F)F)[C@@H](C)[C@H]2c2ccc(F)c(F)c2OC)ccn1` [Example 16], the IC50 in series [1] is 0.33 nM. For the same molecule, in series [2] (iv, 1.0 mg/kg), the Vd was found to be 9.97 L/kg, the AUC(0-t) worked out at 0.718 µg·h/mL, the half-life was 8.1 h and the Cmax was 0.377 µg/mL. Further, the bioavailability in series [2] is 87.2%. For the same molecule, in series [2] (po, i.g., 2.0 mg/kg), the AUC(0-t) was 1.25 µg·h/mL, the CL/F was 1.46 L/h/kg, the half-life was 7.5 h and the Cmax was 0.266 µg/mL. In addition, in series [2] (1.0 mg/kg), the “Clearance rate CL/F” value came out at 1.27 L/h/kg.

Values taken from US20260055088A1, “HETEROCYCLIC COMPOUND, METHOD FOR PREPARING SAME, AND PHARMACEUTICAL USE THEREOF” (Jiangsu Hengrui Pharmaceuticals Co., Ltd., priority 2022, published 2026).
